What was measured:
[1] = system: Human Aortic Endothelial Cells (HAEC) stimulated with IL-1β; test: Suppression of cytokine release from IL-1β-stimulated endothelial cells (Meso Scale); assay type: cell-based; conditions: for difference in cytokine suppression between diastereomers: A0001-RRR versus A0001-SRR; for drop in levels of IL-6: versus DMSO control and alpha-tocopherol, Donors 1 and 2
Method: Human Aortic Endothelial Cells (HAEC) stimulated with IL-1β result in the secretion of pro-inflammatory cytokines IL-6, IL-8 and MCP-1 as described in Wu et al., Atherosclerosis 147, 297-307 (1999). The detection of these secreted cytokines in the presence or absence of compounds was performed using Meso Scale technology.
HAEC cells from two donors (Catalog no. 2535), EGM-2 media with BulletKit supplements (Catalog no. 3162) were purchased from Lonza. IL-1β (Catalog no. 200-01B) was purchased from Peprotech. Custom MSD U-plex plates with assays to detect IL-6, IL-8 and TNF-α (Catalog no. K15067L) were purchased from Meso Scale Discovery. The cells were grown in tissue culture-treated flasks according to Lonza's instructions.
Test samples were supplied in 1.5 mL glass vials. The compounds were diluted with an appropriate volume of DMSO to result in a 10 mM stock solution. Once dissolved, they were stored at −20° C.
(§1) HAEC cells were cultured and used at passage 6. Cells were seeded in clear bottom, black wall 96-well tissue culture-treated polystyrene plates by resuspending a cell suspension at a density of 150,000 cells/mL in growth medium, then dispensing 100 microliters of cell suspension per well using an electronic multichannel pipette, corresponding to 15,000 cells/well (one plate per donor). The cell-containing plates were incubated 3 hours at 37° C. in an atmosphere with 95% humidity and 5% CO2 to allow attachment of the cells to the culture plate.
(§2) Test compounds were then added to varying final concentrations using the Tecan D300e Digital Dispenser, with subsequent back-filling with DMSO diluent to a final concentration of 0.6% (v/v). Cell plates were incubated for 20 hours at 37° C. in an atmosphere of 5% CO2 and 95% humidity.
IL-1β was then added to a final concentration of 10 nanograms/mL and then cell plates were incubated at 37° C. in an atmosphere of 5% CO2 and 95% humidity for 6 hours. Media was collected in a separate polypropylene plate, foil sealed and frozen at −80° C. for up to 96 hours.
Frozen media samples were thawed on ice and IL-6, IL-8 and TNF-alpha were measured using the Meso Scale multiplex assay according to the manufacturer's instructions. Included on each MSD plate was a dilution of IL-6, IL-8 and TNF-alpha standards to accurately quantify the secreted proteins in the media.

Male C57BL/6 mice = test: APAP-induced liver damage in mice, serum liver enzymes ALT and AST; assay type: in vivo; conditions: for mean serum concentration of liver enzyme (ALT) versus APAP alone: 300 mg/kg SC pre-dosing for 4 days
Method: Compounds described herein were tested to determine their effects on liver enzyme concentrations following introduction of APAP in sufficient quantity to cause liver trauma.
Male C57BL/6 mice (Charles River Laboratories), aged 10-12 weeks, were randomly and prospectively assigned to receive treatment with either a test compound or vehicle only. Prior to commencement of testing, the animals had been pre-dosed with a test compound of either EPI-A0001 ((RRR)-alpha tocopherol quinone) or EPI-743 (REE)-alpha tocotrienol quinone) via subcutaneous injection for 4 days at levels of 300 mg/kg body weight dose(s). One additional test compound was administrated at 4 hours prior to commencement of testing. The mice were fasted for 12 hours prior to being challenged with 300 mg/kg body weight with APAP or an equal volume of the dosing vehicle (sterile saline) via […].
The animals were each administered with a single subcutaneous (SC) 300 mg/kg body weight dose of APAP or vehicle only formulation as described herein. All animals were dosed at approximately the same time on the dosing day (±1 hour). Subcutaneous doses were administered via bolus injection between the skin and underlying layers of tissue in the scapular region on the back of each animal. The hair was not clipped from the injection site prior to dosing. The injection site was monitored for necrosis and other changes to the skin and hair.
At the time of sample collection, livers were collected for histopathology and metabolomics analyses and blood was collected for metabolomics analyses or separated into serum for the liver enzyme (AST, ALT) analyses.

[2] = Miscibility / solubility description; assay type: physicochemical
[3] = system: Human Aortic Endothelial Cells (HAEC); test: Cell viability via normalized ATP levels in HAEC; assay type: cell-based; conditions: higher dosing levels; 6 hours; Donors 486 and 662; FIGS. 13 and 14
Method: as §1, §2
FIGS. 7-14 present an expanded array of pro-inflammatory cytokines, including IL-6, IL-8, and TNFa (Tumor Necrosis Factor alpha). […] In these figures, GT is gamma-tocopherol, and DT is delta-tocopherol.

[4] = 4 hours, APAP 300 mg/kg, FIG. 1
[5] = 24 hours, 300 mg/kg SC pre-dosing, APAP 300 mg/kg, FIGS. 3 and 4

For `CC1=C(C)C(=O)C(CC[C@@](C)(O)CCC[C@H](C)CCC[C@H](C)CCCC(C)C)=C(C)C1=O` [A0001-SRR], which “difference in cytokine suppression between diastereomers” value ([1]; 6 hours, Donors 486 and 662) is on record?
Its value is “small variation”.

Which results are given for `CC(C)=CCC/C(C)=C/CC/C(C)=C/CCC(C)(O)CCC1=C(C)C(=O)C(C)=C(C)C1=O` (stereo not drawn) [EPI-743, REE-alpha tocotrienol quinone]?
mean serum concentration of liver enzyme (ALT) versus APAP alone (Male C57BL/6 mice; [4]): reduction in mean serum concentrations; share of animals with AST levels near zero (Male C57BL/6 mice; 4 hours, 300 mg/kg SC pre-dosing, APAP 300 mg/kg, 3 of 10, FIG. 2): 30%; share of animals with ALT near zero (Male C57BL/6 mice; 4 hours, 300 mg/kg SC pre-dosing, APAP 300 mg/kg, 4 of 10, FIG. 1): 40%; individual ALT and AST data points (Male C57BL/6 mice; [5]): several data points at or near zero; mean serum concentration level of ALT and AST versus APAP alone (G4) (Male C57BL/6 mice; [5]): reduction in mean serum concentration level

For `CC(=O)Nc1ccc(O)cc1` [APAP, Acetaminophen, reference compound], which “mean level of ALT in serum after APAP introduction” value (Male C57BL/6 mice; APAP 300 mg/kg alone (G3), 4 hours, FIG. 1) is on record?
Its value is “approximately 3000 U/L”.

What about the “mean level of AST in serum after APAP introduction” value (Male C57BL/6 mice; APAP 300 mg/kg alone (G3), 4 hours, FIG. 2) of the same compound?
Its value is about 3200 U/L.

With `CC1=C(C)C(=O)C(CCC(C)(O)CCCC(C)CCCC(C)CCCC(C)C)=C(C)C1=O` (stereo not drawn) [A0001, RRR-alpha tocopherol quinone] as the compound, how does the “miscibility with other oils” value [2] read?
The value was “infinitely miscible”.

What about the “solubility in aqueous solvents” value [2] of the same compound?
Its value is “practically insoluble”.

And the IL-6 suppression ([1]; 7.5 μM, 6 hours IL-1β)?
The IL-6 suppression was “no longer evident”.

And the “suppression of IL-6 levels” value ([1]; 15 μM, 6 hours IL-1β, compared with 60 μM and 30 μM)?
Its value is “not as dramatic”.

What about the “drop in levels of IL-6” value ([1]; 30 μM, 6 hours IL-1β) of the same compound?
Its value is over 50%.

What about the “drop in levels of IL-6” value ([1]; 60 μM, 6 hours IL-1β) of the same compound?
The value was over 50%.

What about the “dose dependence of IL-6 suppression” value ([1]; 7.5-60 μM, 6 hours, FIGS. 5 and 6) of the same compound?
The value was “dosing dependent effect”.

What about the “difference in cytokine suppression between diastereomers” value ([1]; 6 hours, Donors 486 and 662) of the same compound?
Its value is “small variation”.

And the “suppression of the various cytokines (IL-6, IL-8, TNFa)” value ([1]; 6 hours, Donors 486 and 662, FIGS. 7-12)?
The value was “dose dependent suppression”.

What about the “mean serum concentration of liver enzyme (ALT) versus APAP alone” value (Male C57BL/6 mice; [4]) of the same compound?
The value was “reduction in mean serum concentrations”.

And the “mean serum concentration level of ALT and AST versus APAP alone (G4)” value (Male C57BL/6 mice; [5])?
Its value is “reduction in mean serum concentration level”.

And the “effect on cell viability via normalized ATP levels” value [3]?
Its value is “only a slight effect”.
